What all share (assay): NCI-60 cell line screen, 48 h
In experiment [1] the test system is SK-MEL-5.
Experiment [2] deals with NCI-H226.
Experiment [3] has as its system HCT-116.
The subject of experiment [4] is EKVX.
In experiment [5] the test system is OVCAR-3.
Experiment [6] deals with DU-145.
For experiment [7], the system named is NCI-H23.
The subject of experiment [8] is HOP-92.
The subject of experiment [9] is RXF 393.
For experiment [10], the system named is A549.
The test system of experiment [11] is RPMI-8226.
For experiment [12], the system named is SNB-75.
Experiment [13] deals with SF-539.
Experiment [14] concerns OVCAR-8.
The subject of experiment [15] is NCI-H522.
In experiment [16] the test system is MDA-MB-435.
Experiment [17] relates to HCC 2998.
Experiment [18] concerns A498.
Experiment [19] has as its system HT-29.
The subject of experiment [20] is NCI-H460.

The source of these data is ChEMBL document CHEMBL1201862, “PubChem BioAssay data set” (2004).

SMILES strings stand for the structures.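 Exposure lasted 48 hours, with cells grown in 96-well plates and compounds tested at five concentrations. GI50 = concentration required for 50% inhibition of growth.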 Calls of active or inactive are those of the source. Cut-off read from the data, not from the text of the source: active = GI50 up to about 1.1 µM and inactive = higher.

On to `O=P1(c2ccccc2)c2ccccc2CCc2ccccc21`, for which the GI50 in experiment [1] is 44.9 µM (inactive); in experiment [2], > 100 µM (inactive); in experiment [3] it was 53 µM (inactive); in experiment [4] it was 66.4 µM (inactive); in experiment [5], 40.8 µM (inactive); in experiment [6], 72.8 µM (inactive). In addition, the GI50 in [7] was > 100 µM (inactive); in experiment [8] it was 35.6 µM (inactive); in experiment [9], 44.4 µM (inactive); in experiment [10], 86.5 µM (inactive); in [11], 50.6 µM (inactive); in experiment [12], 43.8 µM (inactive). The GI50 in experiment [13] is > 100 µM (inactive); in experiment [14], > 100 µM (inactive); in [15], 37.1 µM (inactive); in experiment [16], 57.7 µM (inactive); in experiment [17] it was > 100 µM (inactive).
`Cc1cccc(N2CCN(S(=O)(=O)c3ccc(Cl)cc3)C2=N)c1C`: the GI50 in experiment [1] is > 100 µM (inactive); in experiment [2], > 100 µM (inactive); in [3], > 100 µM (inactive); in [18], > 100 µM (inactive); in [6], 93.3 µM (inactive); in experiment [7], 96.4 µM (inactive). In addition, the GI50 in experiment [19], in experiment [9], in [10], in experiment [11], in experiment [12] and in experiment [13] was > 100 µM (inactive) in each case. The results for the GI50 in experiment [14] and in [16] were 93.8 µM (inactive) and > 100 µM (inactive), respectively.
In the case of `Cc1c(C#N)c(=N)oc2ccccc12`, the GI50 in [1] was > 100 µM (inactive); in experiment [2], > 100 µM (inactive); in experiment [3] it was > 100 µM (inactive); in [4] it was 49.8 µM (inactive); in experiment [18], > 100 µM (inactive); in [5], > 100 µM (inactive). The GI50 in [6], in experiment [7], in experiment [8], in experiment [20], in [19] and in experiment [9] was > 100 µM (inactive) in each case. Besides, the GI50 in experiment [10] was > 100 µM (inactive); in [11] it was > 100 µM (inactive); in experiment [12] it was 57.5 µM (inactive); in experiment [13], > 100 µM (inactive); in experiment [14], > 100 µM (inactive); in experiment [16], > 100 µM (inactive). Also, the GI50 in [17] is > 100 µM (inactive).
Regarding `CC(C)=CCC[C@@H](C)C1=C(O)C(=O)C(C)=C(c2c(I)c(=O)n(C)c(=O)n2C)C1=O`, the GI50 in experiment [2], in [3], in [4], in experiment [18], in experiment [5] and in experiment [6] was > 100 µM (inactive) each time. The GI50 in experiment [7] was > 100 µM (inactive); in experiment [8], > 100 µM (inactive); in [20], > 100 µM (inactive); in experiment [19] it was > 100 µM (inactive); in [10] it was 61 µM (inactive); in [11], 61 µM (inactive). The GI50 in experiment [12], in experiment [13], in experiment [14], in [16] and in [17] was > 100 µM (inactive) each time.
For `COC(=O)[C@H](Cc1c[nH]c2ccccc12)NP(=O)(O)OC[C@H]1O[C@@H](n2cc(C)c(=O)[nH]c2=O)C[C@@H]1N=[N+]=[N-]`, the GI50 in [1], in experiment [2], in experiment [3], in experiment [4], in experiment [5] and in experiment [6] was > 100 µM (inactive) throughout. The GI50 in [7], in [8], in experiment [20], in experiment [19], in [9] and in [10] was > 100 µM (inactive) in each case. Further, the GI50 in experiment [11], in experiment [12], in [14], in experiment [15], in experiment [16] and in experiment [17] was > 100 µM (inactive) in each case.
With `CCOC(=O)/C=C(/C(=O)OCC)n1cc(C)c(=O)n(Cc2cnnn2CCCCOC(C)=O)c1=O`, the GI50 in experiment [1] was 30 µM (inactive); in experiment [2] it was > 100 µM (inactive); in experiment [3], 15.1 µM (inactive); in [4] it was 21.8 µM (inactive); in [5] it was 16.8 µM (inactive); in [6], > 100 µM (inactive). In addition, the GI50 in [7] is 28.7 µM (inactive); in experiment [8], 0.0906 µM (active); in experiment [20] it was 23.3 µM (inactive); in [19] it was 19.2 µM (inactive); in experiment [9] it was 33.3 µM (inactive); in experiment [10] it was > 100 µM (inactive). Moreover, the GI50 in [11] is 17.1 µM (inactive); in experiment [12], > 100 µM (inactive); in [13], 15.1 µM (inactive); in experiment [14], 22.8 µM (inactive); in [15] it was 3.21 µM (inactive); in [16], 21.2 µM (inactive). Besides, the GI50 in experiment [17] is > 10 µM (inactive).
Regarding `COC(=O)c1csc(-c2nc(CCNC(=O)OC(C)(C)C)sc2Br)n1`, the GI50 in experiment [1], in experiment [2], in experiment [3], in experiment [4], in [18] and in experiment [5] was > 100 µM (inactive) throughout. The GI50 in experiment [6], in [7], in experiment [20], in experiment [19], in experiment [9] and in experiment [10] was > 100 µM (inactive) throughout. In addition, the GI50 in experiment [11] is 99.3 µM (inactive); in experiment [12], > 100 µM (inactive); in experiment [13] it was > 100 µM (inactive); in experiment [14] it was > 100 µM (inactive); in experiment [16], > 100 µM (inactive); in [17], > 100 µM (inactive).
As for `NC(=O)C(=O)C(c1ccccc1)S(=O)(=O)Cc1ccccc1` (stereo unspecified), the GI50 in [1], in experiment [2], in [3], in [4], in experiment [5] and in experiment [6] was > 100 µM (inactive) throughout. Further, the GI50 in experiment [7], in experiment [8], in [20], in [19], in [9] and in [10] was > 100 µM (inactive) throughout. Besides, the GI50 is > 100 µM (inactive) in experiment [11]; > 82 µM (inactive) in experiment [12]; > 100 µM (inactive) in experiment [13]; > 100 µM (inactive) in experiment [14]; > 100 µM (inactive) in [15]; > 100 µM (inactive) in experiment [16]. The GI50 in [17] is > 100 µM (inactive).
